# Assay results published in US20200163938A1, “PHARMACEUTICAL COMPOSITION COMPRISING IRON CHELATOR EXHIBITING ANTITUMOR ACTIVITY, ANTIBACTERIAL ACTIVITY AND/OR ANTIVIRUS ACTIVITY, AND HAVING REDUCED SIDE EFFECTS” (priority 2017, published 2020).
# Values joined by “and” are separate entries in the source; they are usually repeats but may differ in a detail not shown here. Equal values may be shown once. “Also recorded” adds a separate entry of the source. Where a name gives a salt, the structure may show the parent alone. Read-outs that look alike come from different tables or passages of the source.
# How the values were obtained:
# [1] = tested on: human influenza virus PR8 [A/PUERTORICO/8/34 (H1N1)]; experiment: Suppression of viral infection of MDCK cells; format: cell-based; conditions: 48 hours
# Experimental: MDCK cells (canine renal tubule epithelial cells) were infected with a human influenza virus, and then an effect of suppressing the viral infection of MDCK cells was confirmed. Specifically, PR8 [A/PUERTORICO/8/34 (H1N1)] was adjusted at TCID50=2.81×10^6/mL as the influenza virus, the viral liquid and an equivalent amount of the chelating agent of test group 10 (concentration: 100 μg/mL, 250 μg/mL, 500 μg/mL, or 1000 μg/mL) were mixed and then left to stand at room temperature for 30 minutes. The above-prepared viral liquid was added to MDCK cells. After 48 hours, cells were observed, living cells (specifically, non-infected cells) remaining on the bottom of the culture dish were observed under a microscope. Results were as depicted in FIG. 16A.
# [2] = mouse, in vivo, 300 mg/kg
# Experimental: To each of 6-week-old Jcl: ICR mice divided into a test group 6 administration group (n=3), a test group 9 administration group (n=3), and a test group 10 administration group (n=3), the chelating agent of each test group was administered at a dose of 300 mg/kg body weight via tail vein. To a positive control group (administration; n=4), deferoxamine mesylate was administered at a dose of 300 mg/kg body weight via tail vein. On day 7 after administration, determining life or death, and physical items (respiration, body temperature, behavior, etc.) were observed.
# HSC-2 cells [3] = experiment: Apoptosis induction, TUNEL staining; format: cell-based, human; conditions: 50 μg/mL, 48 hours, FIG. 11A
# Experimental: (§1) Furthermore, the apoptosis-inducing effects of the chelating agents of test groups 6 and 10 on tumors were confirmed. First, 100 μg/mL of the chelating agent of test group 6 or 50 μg/mL of the chelating agent of test group 10 was added to HSC-2 cells in a culture solution. After 48 hours of reaction, TUNEL Assay was carried out. Specifically, apoptosis induction was evaluated by the TUNEL staining method using a MK500 in situ Apoptosis Detection Kit (Takara Bio Inc.).
# P. gingivalis Pg W83 = experiment: Antibacterial activity, turbidity and ATP assay; format: cell-based, Porphyromonas gingivalis; conditions: anaerobic culture 37° C., 18 hours, OD595 nm; FIG. 8
# Experimental: A bacterial strain of one of periodontopathic bacteria, gram-negative bacillus, P. gingivalis, used herein was Pg W83. With the use of a liquid medium prepared by adding the chelating agent of each test group to a modified GAM bouillon medium, anaerobic culture (Anaeropack.anaerobic) was performed at 37° C. for 18 hours. Turbidity was found from optical density (OD595 nm). Results were as depicted in FIG. 8.
# [4] = tested on: human oral squamous cell carcinoma HSC-2; experiment: Antitumor effects, cell viability (XTT method); format: cell-based; conditions: FIG. 10
# Experimental: (§2) The antitumor effects of the chelating agents of test groups 1 to 10 on each of human lung cancer cell line A549, human liver cancer cell line PLC, and human colon adenocarcinoma cell line HCT116 were confirmed. A549 cells or PLC cells were seeded at 3000 cells/well, and HCT116 cells were seeded at 6000 cells/well. After 24 hours, the fetal bovine serum (FBS) concentration was changed from 10% to 1%, each compound of the test groups 1 to 10 was introduced into medium. Cell viability was confirmed after 48 hours by the Trypan blue method, or, cell viability was confirmed after 48 hours by performing medium exchange and then after 24 hours by performing the XTT method. Deferoxamine mesylate (Desferal (Trademark)) was used as a positive control. Results are as depicted in FIGS. 1A, 1B, 2 and 3.
# (§3) Moreover, similarly to the above experiment on antitumor effects, the antitumor effects of the chelating agent of test group 6 or 10 on each of human breast cancer cell line MCF-7 and human oral squamous cell carcinoma HSC-2 were confirmed.
# [5] = tested on: human breast cancer cell line MCF-7; experiment: Antitumor effects, cell viability (XTT method); format: cell-based; conditions: FIG. 9
# Experimental: as §2, §3
# HCT116 cells = experiment: Apoptosis induction, TUNEL staining; format: cell-based, human; conditions: 6.5 µg/mL, 48 hours, FIG. 11B
# Experimental: as §1
# (§4) Similarly, the apoptosis-inducing effects of the chelating agent of test group 6 or 10 on HCT116 cells were confirmed. 10 μg/mL of the chelating agent of test group 6 was added and 6.5 µg/mL of the chelating agent of test group 10 was added to the cells. After 48 hours of reaction, TUNEL staining was carried out similarly to the above.
# [6] = format: in vivo; design: NEFA: unit not given here; conditions: for Body weight: rats
# Experimental: To a negative control group (saline administration; n=6), the same amount of saline was administered. On day 14 after administration, determining life or death, measurement of body weight, physical items (respiration, body temperature, behavior, etc.) were observed. Moreover, blood samples were taken from each group, and the right kidneys and the livers were removed. Results were as depicted in FIG. 5A to 5C and Tables 4 to 9.
# [7] = tested on: subcutaneously-transplanted HCT116 cells; format: in vivo, nude mice (BALB/c nu/nu)
# Experimental: Next, the antitumor effects of the chelating agents of test groups 6 and 10 on HCT116-cell subcutaneous transplantation model mice, into which HCT116 cells had been subcutaneously transplanted, were confirmed. Mice prepared herein were nude mice (BALB/c nu/nu, 6 weeks old: Clea Japan Inc.). HCT116 cells were adjusted at 3×10^6/mouse, and then mixed with Matrigel (BD Biosciences) at 1:1. The thus obtained mixture was administered to mice, thereby preparing subcutaneous tumors. The dosage was 200 mg/kg/day (5 times/week administration). […] Tissue sections of HCT116 cells subcutaneously transplanted into the test group 10 administration group were prepared, and then hematoxylin-eosin (HE) staining, and TUNEL staining were performed by the above-mentioned method.
# A549 cells [8] = experiment: Western blot of apoptosis-related factors; format: cell-based, human; conditions: A549 cell lysate; FIG. 12
# Source text: (§5) The cell lysate of each type of cells treated with the chelating agents of test groups 6 and 10 was Western-blotted, and then an increase or a decrease in apoptosis-related factors in treated cells was confirmed using the indicated antibodies. […] Concentration-dependent apoptosis induction was also biochemically confirmed.
# HSC-2 cells [9] = experiment: Western blot of apoptosis-related factors; format: cell-based, human; conditions: HSC-2 cell lysate; FIG. 12
# Source text: as §5
# MCF-7 cells = experiment: Western blot of apoptosis-related factors; format: cell-based, human; conditions: MCF-7 cell lysate; FIG. 12
# Source text: as §5
# A549 cells [10] = experiment: Apoptosis induction, TUNEL staining; format: cell-based, human; conditions: 50 μg/mL, 48 hours, FIG. 11C
# Experimental: as §1
# as §4, with “Further, the” for “Similarly, the”, “on A549” for “on HCT116”, “confirmed. 100” for “confirmed. 10”, “and 50 μg/mL” for “and 6.5 µg/mL”
# [11] = rat blood, oral 200 mg/kg, day 14
# [12] = rat blood, oral 1000 mg/kg, day 14
# [13] = rat blood, oral 1000 mg/kg, day 14, 1000 mg/kg
structure (smiles),measurement,setting,value
"CC(=O)N(O)CCCCCNC(=O)CCC(=O)N(O)CCCCCNC(=O)CCC(=O)N(O)CCCCCN [deferoxamine mesylate, Deferoxamine mesylate]",effect of suppressing viral infection,"[1]; 500 μg/mL or 1000 μg/mL, listed as Desferal",the effect of suppressing viral infection was not observed; also recorded: unable to inhibit viral infection
same,life or death,[2],died immediately after administration
Cl.O=C(O)[C@H](Cc1c[nH]cn1)NCc1ccc(O)c(O)c1O [Test group 10],apoptosis-inducing effects (TUNEL staining),HSC-2 cells [3],green-stained cells indicating apoptosis were confirmed
same,effect of suppressing viral infection,[1]; 500 μg/mL,observed to have the effect of suppressing viral infection
same,antimicrobial effects on P. gingivalis (turbidity),P. gingivalis Pg W83,exhibited antimicrobial effects
same,antitumor effects on HSC-2 (cell viability),[4],exhibit antitumor effects
same,antitumor effects on MCF-7 (cell viability),[5],exhibit antitumor effects
same,apoptosis-inducing effects (TUNEL staining),HCT116 cells,green-stained cells indicating apoptosis were confirmed
same,ALP,[6]; [11],603 IU/L
same,ALT,[6]; [11],33 IU/L
same,AST,[6]; [11],61 IU/L
same,BUN,[6]; [11],22.5 mg/dL
same,CRE,[6]; [11],0.37 mg/dL
same,Ca,[6]; [11],11.2 mg/dL
same,GLU,[6]; [11],278 mg/dL
same,K,[6]; [11],6.1 mEQ/L
same,LD,[6]; [11],53 IU/L
same,NEFA,[6]; [11],111
same,Na,[6]; [11],146 mEQ/L
same,T-Bil,[6]; [11],0.06 mg/dL
same,TP,[6]; [11],5.5 g/dL
same,ALT,[6]; [12],25 IU/L
same,CRE,[6]; [12],0.36 mg/dL
same,ALP,[6]; [13],592 IU/L and 618 IU/L
same,AST,[6]; [13],56 IU/L and 90 IU/L
same,BUN,[6]; [13],24.6 mg/dL and 22.8 mg/dL
same,Ca,[6]; [13],10.6 mg/dL and 10.5 mg/dL
same,GLU,[6]; [13],259 mg/dL and 187 mg/dL
same,K,[6]; [13],4.8 mEQ/L and 4.9 mEQ/L
same,Na,[6]; [13],142 mEQ/L and 143 mEQ/L
same,TP,[6]; [13],5.4 g/dL and 5.7 g/dL
same,Body weight,[6]; oral 200 mg/kg,170.83 g
same,Body weight,"[6]; oral 1000 mg/kg, 1000 mg/kg",170.73 g and 185.29 g
same,in vivo apoptosis induction in tumor tissue sections (TUNEL staining),"[7]; HCT116 subcutaneous tumor tissue, 200 mg/kg/day, FIG. 13B",FITC-derived green-stained cell images indicating apoptosis induction were confirmed
same,body weight change,"[7]; mouse, in vivo, 200 mg/kg/day",no change in body weight was observed
same,in vivo antitumor effects,"[7]; subcutaneously-transplanted HCT116 cells, nude mice, 200 mg/kg/day (5 times/week), FIGS. 13A, 14",exhibited antitumor effects
same,PARP cleaved fragments and caspase-3-cleaved fragments (Western blot),A549 cells [8],PARP cleaved fragments and caspase-3-cleaved fragments were confirmed
same,PARP cleaved fragments and caspase-3-cleaved fragments (Western blot),HSC-2 cells [9],PARP cleaved fragments and caspase-3-cleaved fragments were confirmed
same,PARP cleaved fragments and caspase-3-cleaved fragments (Western blot),MCF-7 cells,PARP cleaved fragments and caspase-3-cleaved fragments were confirmed
same,apoptosis-inducing effects (TUNEL staining),A549 cells [10],green-stained cells (FITC positive cells) indicating apoptosis were confirmed
